According to ChEMBL document CHEMBL1131587, “Novel peptidyl phosphorus derivatives as inhibitors of human calpain I” (J Med Chem, 1998):

Target: T1, Calpain-1 catalytic subunit (Homo sapiens, UniProt P07384)
T1 sequence (P07384 whole entry): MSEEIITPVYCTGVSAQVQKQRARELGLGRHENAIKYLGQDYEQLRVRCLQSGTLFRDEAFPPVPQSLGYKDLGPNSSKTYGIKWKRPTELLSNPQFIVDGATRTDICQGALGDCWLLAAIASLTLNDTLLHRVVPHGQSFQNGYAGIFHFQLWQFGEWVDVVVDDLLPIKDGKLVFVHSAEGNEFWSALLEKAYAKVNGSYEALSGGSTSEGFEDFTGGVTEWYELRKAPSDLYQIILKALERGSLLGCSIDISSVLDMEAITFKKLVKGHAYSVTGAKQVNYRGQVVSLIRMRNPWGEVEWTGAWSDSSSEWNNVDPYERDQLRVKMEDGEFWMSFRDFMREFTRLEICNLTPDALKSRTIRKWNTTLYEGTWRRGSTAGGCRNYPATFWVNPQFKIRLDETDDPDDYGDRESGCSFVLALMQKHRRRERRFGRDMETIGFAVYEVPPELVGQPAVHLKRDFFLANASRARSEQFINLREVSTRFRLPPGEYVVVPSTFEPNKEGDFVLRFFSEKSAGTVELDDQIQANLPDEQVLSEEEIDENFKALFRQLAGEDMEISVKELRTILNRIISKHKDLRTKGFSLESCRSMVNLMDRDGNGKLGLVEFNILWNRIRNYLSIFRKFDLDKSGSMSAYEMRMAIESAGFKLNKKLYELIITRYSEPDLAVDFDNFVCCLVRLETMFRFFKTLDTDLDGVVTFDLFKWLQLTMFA
Assay: inhibitory activity measured against recombinant human Calpain-I receptor

| Compound | IC50 [µM] |
| --- | --- |
| CCCCOP(=O)(OCCCC)C(=O)[C@@H](Cc1ccccc1)NC(=O)C(NC(=O)OCc1ccccc1)C(C)C (stereo not given in full) | > 10 |
| CCOP(=O)(C(=O)[C@@H](CC(C)C)NC(=O)C(CC(C)C)NC(=O)OCc1ccccc1)c1ccccc1 (stereo not given in full) | 0.37 |
| CC(C)CC(NC(=O)OCc1ccccc1)C(=O)N[C@H](CC(C)C)C(=O)P(C)(C)=O (stereo not given in full) | > 10 |
| CCOC(=O)[C@@H](CC(C)C)NC(=O)C(CC(C)C)NC(=O)OCc1ccccc1 (stereo not given in full) | 0.6 |
| COP(=O)(O)C(=O)[C@@H](CC(C)C)NC(=O)C(CC(C)C)NC(=O)OCc1ccccc1 (stereo not given in full) | 5.2 |
| CCCCOP(=O)(OCCCC)C(=O)[C@@H](CC(C)C)NC(=O)C(CC(C)C)NC(=O)OCc1ccccc1 (stereo not given in full) | > 10 |
| COP(=O)(OC)C(=O)[C@@H](Cc1ccccc1)NC(=O)C(NC(=O)OCc1ccccc1)C(C)C (stereo not given in full) | 7.4 |
| COP(=O)(OC)C(=O)[C@@H](CC(C)C)NC(=O)C(CC(C)C)NC(=O)OCc1ccccc1 (stereo not given in full) | 0.43 |
| CC(C)C(NC(=O)OCc1ccccc1)C(=O)N[C@H](Cc1ccccc1)C(=O)P(=O)(OCc1ccccc1)OCc1ccccc1 (stereo not given in full) | 6 |
| CC(C)CC(NC(=O)OCc1ccccc1)C(=O)N[C@H](CC(C)C)C(=O)P(=O)(c1ccc(Cl)cc1)c1ccc(Cl)cc1 (stereo not given in full) | 0.35 |
